In US4764589A, “[N-alpha-acyl,8-glycine, des-19-leucine]-calcitonin” (Rorer Pharmaceutical Corporation, priority 1987, dated 1988):
Where a SMILES comes first, the peptide text is derived from it. Bridges are numbered along the chain shown (N, C = ends). The star is where a group is joined. Propionyl = CCC(=O)*

System: serum calcium concentration
Protocol: Biological Assay of Calcitonin Analogs in Vivo
The biological potency of [N-alpha-Propionyl, 8-glycine, des-19-leucine] salmon calcitonin was determined by comparing the reduction of serum calcium concentration which followed administration by graded doses of [N-alpha-Propionyl, Gly^8, des-Leu^19 ]-SCT and synthetic salmon calcitonin standard. Rats were divided into four groups of seven animals, and each group was assigend at random to a dose of standard or test solution. Low and high doses were chosen from the linear portion of the dose-response curve. For the salmon calcitonin standard, the values were 0.7 and 2.1 ng. peptide/100 g. BW. Peptides were given by subcutaneous injection (0.2 ml/100 g. BW) and blood was withdrawn 1 hour later for serum calcium determination. Sera are processed and analyzed within two hours of collection.

| Structure (SMILES) | biological potency (rat, in vivo, sc) | biological potency of the standard, independently determined (standard salmon calcitonin used in the assay) |
| --- | --- | --- |
| CCC(=O)N[C@H]1CSSC[C@@H](C(=O)NCC(=O)N[C@@H](CC(C)C)C(=O)NCC(=O)N[C@@H](CCCCN)C(=O)N[C@@H](CC(C)C)C(=O)N[C@@H](CO)C(=O)N[C@@H](CCC(N)=O)C(=O)N[C@@H](CCC(=O)O)C(=O)N[C@@H](CC(C)C)C(=O)N[C@@H](Cc2c[nH]cn2)C(=O)N[C@@H](CCCCN)C(=O)N[C@@H](CCC(N)=O)C(=O)N[C@H](C(=O)N[C@@H](Cc2ccc(O)cc2)C(=O)N2CCC[C@H]2C(=O)N[C@@H](CCCNC(=N)N)C(=O)N[C@H](C(=O)N[C@@H](CC(N)=O)C(=O)N[C@H](C(=O)NCC(=O)N[C@@H](CO)C(=O)NCC(=O)N[C@H](C(=O)N2CCC[C@H]2C(N)=O)[C@@H](C)O)[C@@H](C)O)[C@@H](C)O)[C@@H](C)O)NC(=O)[C@H]([C@@H](C)O)NC(=O)[C@H](CO)NC(=O)[C@H](CC(C)C)NC(=O)[C@H](CC(N)=O)NC(=O)[C@H](CO)NC1=O [[N alpha-propionyl, 8-glycine, des-19-leucine] salmon calcitonin] (Propionyl-CSNLSTCGLGKLSQELHKQTYPRTNTGSGTP-NH2; disulfide 1-7) | 9,700 IU/mg | – |
| CC(C)C[C@H](NC(=O)[C@H](CCCCN)NC(=O)CNC(=O)[C@H](CC(C)C)NC(=O)[C@@H](NC(=O)[C@@H]1CSSC[C@H](N)C(=O)N[C@@H](CO)C(=O)N[C@@H](CC(N)=O)C(=O)N[C@@H](CC(C)C)C(=O)N[C@@H](CO)C(=O)N[C@@H]([C@@H](C)O)C(=O)N1)C(C)C)C(=O)N[C@@H](CO)C(=O)N[C@@H](CCC(N)=O)C(=O)N[C@@H](CCC(=O)O)C(=O)N[C@@H](CC(C)C)C(=O)N[C@@H](Cc1c[nH]cn1)C(=O)N[C@@H](CCCCN)C(=O)N[C@@H](CC(C)C)C(=O)N[C@@H](CCC(N)=O)C(=O)N[C@H](C(=O)N[C@@H](Cc1ccc(O)cc1)C(=O)N1CCC[C@H]1C(=O)N[C@@H](CCCNC(=N)N)C(=O)N[C@H](C(=O)N[C@@H](CC(N)=O)C(=O)N[C@H](C(=O)NCC(=O)N[C@@H](CO)C(=O)NCC(=O)N[C@H](C(=O)N1CCC[C@H]1C(N)=O)[C@@H](C)O)[C@@H](C)O)[C@@H](C)O)[C@@H](C)O [standard salmon calcitonin, Salmon calcitonin] | – | greater than 4,000 IU/mg |
